The values below come from patent US12578339B2, “Hexokinase 1 isoform B for use as a prognosis marker and specific target against cancer” (ISTANBUL MEDIPOL UNIVERSITESI, priority 2019, dated 2026).

“Also recorded” adds a separate entry of the source.

Holding throughout (type): cell-based, Human
The subject of test [1] is A549 HK1b−/− cells. Kind of test: Cell viability assay (CellTiter-Blue). The note with it: 48 h treatment. How it is done:
(§1) Twenty-four hours following seeding (15,000 cells/well) in a 96-well plate, A549 and A549 HK1b^−/− cells (70%-80% confluent) were treated with vehicle (PBS/Saline), or cisplatin with concentrations range from 0-100 μM/ml and the cells incubated for a further 48 h. The cell viability was determined using the CellTiter-Blue assay kit (Promega) according to the manufacturer's instructions and absorbance measured at 595 nm with a microplate reader (Model 3550, Bio-Rad Laboratories, CA, USA). IC50 was defined as the concentration causing a 50% reduction in absorbance relative to the negative control. IC50 was determined by non-linear regression analysis using Graphpad Prism v8 (Graphpad Software, CA, USA).
On the technique in general: The colour change of resazurin is a common sign of viable cells or microbes.

In test [2] the test system is A549 WT cells. Kind of test: Cell viability assay (CellTiter-Blue). The note with it: A549 WT control group, 48 h treatment. How it is done:
as §1

In test [3] the test system is A549 HK1b−/− cells. Kind of test: Flow cytometric quantification of cell death by propidium iodide staining. The settings on record: IC50 concentration (47 μM), 48 hrs. In general terms: A flow cytometer gives signals particle by particle.
The test system of test [4] is A549 HK1b−/− cells. In words: Immunoblot analysis of apoptotic, autophagic and survival signaling. How it is done:
(§2) Cells were harvested and washed in PBS solution, collected, and then subjected to lysis in RIPA buffer containing proteinase inhibitor cocktail and phosphatase inhibitor cocktail (Roche). The lysates were subjected to centrifugation at 10,000 g at 4 C for 20 minutes and the supernatants removed. The total protein ([…]) was fractioned by 10% SDS-PAGE and electrophoretically transferred to Immobilon-FL PVDF membranes. The membrane was blocked with blocking buffer (Li-Cor) at room temperature for 1 hour, and then incubated with appropriate primary antibody at 4 C overnight. After washing with PBS containing 0.05% […] (PBST), the membrane was incubated with 1:2500 dilutions of appropriate secondary antibody for 2 hours at room temperature. The membrane was washed with PBST again, and Pierce ECL Western Blotting Substrate (Thermo Scientific) was used for development of immunoreactive bands. For immunoblotting of tissue samples, proteins were extracted from tumor and adjacent non-tumor lung samples collected from human NSCLC patients, snap frozen in liquid nitrogen, and stored at −80° C. Then protein lysis buffer (described above) was added to samples. Samples were vortexed, homogenized and subjected to three freeze/thaw cycles in dry ice, centrifuged and supernatant collected, and stored at −80° C. for subsequent immunoblotting.
(In western blotting, separated proteins are transferred to a membrane and probed.)

The test system of test [5] is A549 WT cells. The description is as above. How it is done:
as §2

Test [6] deals with A549 HK1b−/− cells. Kind of test: Seahorse XF glycolysis stress test (ECAR). The settings on record: treated A549 HK1b−/− cells. How it is done:
(§3) For Seahorse XFe96 assays, cells were seeded at pre-optimized final concentration 1.5×10^4 cells/well onto Seahorse XF-96-well plates and Glycolytic rate, Glycolysis stress and Mito Stress Tests were performed following the manufacturer's specifications (Seahorse Bioscience, North Billerica, MA). Each datum was determined minimally in triplicate. OCR and ECAR were reported as absolute rates (pmoles/min for OCR and mpH/min for ECAR) or normalized against cell counts, or expressed as a percentage of the baseline oxygen consumption.

In test [7] the test system is A549 HK1b−/− cells. In words: Seahorse Mito Stress Test (OCR). The note with it: between treated A549 WT and A549 HK1b−/− cells. How it is done: as §3
Test [8] has as its system A549 WT cells. Kind of test: Seahorse Mito Stress Test (OCR). The note with it: treated A549 WT cells, p=0.02. How it is done: as §3
Test [9] deals with A549 HK1b−/− cells. Kind of test: Flow cytometric analysis of mTOR activation. The settings on record: flow cytometry, HK1b deletion plus treatment, p=0.001.

With `N.N.[Cl][Pt][Cl]` [cisplatin, Cisplatin], in the test on A549 HK1b−/− cells [1], it took 47 µM to reach half-maximal inhibition (IC50). The IC50 (usually the concentration that gives 50% inhibition) in the test with A549 WT cells [2] came out at 75 µM. Besides, the “cell death measured by propidium iodide (PI) staining” value with A549 HK1b−/− cells [3] is recorded as “significantly enhance cell death”. Besides, the “induction of cleavage of PARP and caspase 3” value in the test on A549 HK1b−/− cells [4] (A549 HK1b−/− cells compared with A549 WT) was “significantly higher”. Moreover, in the test on A549 HK1b−/− cells [4] (HK1b deletion plus treatment), the “autophagy induction (LC3II)” value was “induces greater autophagy” and the “phosphorylation of STAT3 transcription factor” value is given as “inhibit significantly”. The “AKT activation and its downstream target GSK3β” value in the test on A549 HK1b−/− cells [4] (HK1b silencing in combination with treatment) is on record as “totally inhibited”. The “beclin-1 and ATG13 expression levels” value in the test on A549 HK1b−/− cells [4] (both A549 WT and A549 HK1b−/− cells) is reported as “downregulated”. Also, in the test with A549 HK1b−/− cells [4] (immunoblot, HK1b deletion plus treatment), the “phosphorylation of mTOR” value is reported as “inhibits significantly; also recorded: inhibits phosphorylation”. Further, in the test with A549 HK1b−/− cells [4] (treated A549 HK1b−/− cells), the AMPK phosphorylation entry is listed as “totally inhibited”, the Bcl-2 expression entry is reported as “down-regulation of Bcl-2 expression was significant” and the HK2 expression entry is on record as “reduced”. In addition, the “cleavage of PARP and caspase 3” value in the test with A549 WT cells [5] (immunoblot, A549 WT (and HK1b−/−) cells) is “induces cleavage of PARP and caspase 3”. Moreover, in the test with A549 WT cells [5] (treated A549 WT cells), the AMPK phosphorylation result is given as “diminished” and the HK1 expression entry is recorded as “significantly upregulated”. Also, in the test with A549 HK1b−/− cells [6], the “basal glycolysis and glycolytic capacity (ECAR)” value is “further reduction of basal glycolysis and glycolytic capacity even though not significant; also recorded: further reduced ablait not significant”; the glycolytic reserve entry is “total absence”. Besides, the basal respiration rate entry in the test with A549 HK1b−/− cells [7] is on record as “no significant change”. In addition, the spare respiratory capacity result with A549 WT cells [8] was “diminished”. Further, the mTOR phosphorylation result in the test on A549 HK1b−/− cells [9] is “significantly inhibits”.
